Measured values from patent EP0504290B1, “INHIBITORS OF PNEUMOCYSTIS CARINII DIHYDROFOLATE REDUCTASE” (CHIRON CORPORATION, priority 1989, dated 1991).
Read-outs that look alike come from different tables or passages of the source.

Columns and labels:
[1] = biological target: Pneumocystis carinii DHFR (Pneumocystis carinii, UniProt P16184); experiment: biochemical
[2] = biological target: T1, recombinant human DHFR (Homo sapiens, UniProt P00374); experiment: Inhibition of recombinant human DHFR activity by substituted phenyl triazines at 25 µM DHF; format: biochemical
T1 sequence (P00374 1-187): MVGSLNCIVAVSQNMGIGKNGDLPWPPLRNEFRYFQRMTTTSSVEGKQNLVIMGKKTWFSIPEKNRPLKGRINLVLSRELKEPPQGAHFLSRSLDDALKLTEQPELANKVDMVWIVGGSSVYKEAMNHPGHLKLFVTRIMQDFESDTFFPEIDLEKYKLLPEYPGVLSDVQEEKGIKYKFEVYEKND

[3] = biological target: P. carinii DHFR (Pneumocystis carinii, UniProt P16184); experiment: biochemical
P. carinii DHFR, sequence (P16184 whole entry): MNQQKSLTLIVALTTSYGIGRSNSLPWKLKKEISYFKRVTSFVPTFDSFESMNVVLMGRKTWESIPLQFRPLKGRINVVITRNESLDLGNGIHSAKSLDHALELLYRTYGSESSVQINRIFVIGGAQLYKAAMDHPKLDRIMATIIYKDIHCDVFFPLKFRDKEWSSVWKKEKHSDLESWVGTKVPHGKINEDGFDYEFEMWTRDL

[4] = ratio of human DHFR Ki to P. carinii DHFR Ki

Pneumocystis carinii DHFR, sequence (P16184 whole entry): as above

Row | SMILES | IC50 [1] [µM] | IC50 [2] [µM] | Selectivity, Ki (human)/Ki(Pc) [1, 4] | further results
1 | CC1(C)N=C(N)N=C(N)N1c1cccc(CNc2cc(C(N)=O)cc(C(N)=O)c2)c1 [3-CH2NHϕ, 3',5'(CONH2)2] | 1.07 | 2.8 |  | Selectivity, Ki (human)/Ki(Pc) [1]: 4.5
2 | CC1(C)N=C(N)N=C(N)N1c1cccc(CNc2ccc(C#N)cc2)c1 [3-CH2NHϕ, 4'CN] | 0.6 | 0.52 | 1.5 | 
3 | CC1(C)N=C(N)N=C(N)N1c1cccc(COc2ccc(Cl)c(Cl)c2Cl)c1 [3-CH2Oϕ, 2',3',4'Cl3] | 0.56 | 0.81 | 2.5 | 
4 | CC1(C)N=C(N)N=C(N)N1c1cccc(COc2cccc(CO)c2)c1 [3-CH2Oϕ, 3'CH2OH] | 1.8 | 0.97 | 0.9 | 
5 | CC(=O)Nc1cccc(OCc2cccc(N3C(N)=NC(N)=NC3(C)C)c2)c1 [3-CH2Oϕ, 3'NHAc] | 0.23 |  |  | 
6 | COc1cccc(OCc2cccc(N3C(N)=NC(N)=NC3(C)C)c2)c1 [3-CH2Oϕ, 3'OCH3] | 0.55 | 0.36 | 1.1 | 
7 | CC1(C)N=C(N)N=C(N)N1c1cccc(COc2cccc3ccccc23)c1 [3-CH20(a)Naphthyl] | 0.36 | 0.56 |  | Selectivity, Ki (human)/Ki(Pc) [1]: 2.6
8 | Cc1cccc(OCc2cccc(N3C(N)=NC(N)=NC3(C)C)c2)c1 [3-CH20ϕ, 3'CH3] | 1.4 | 0.65 | 0.8 | 
9 | CC1(C)N=C(N)N=C(N)N1c1cccc(COc2cccc(Cl)c2)c1 [3-CH20ϕ, 3'Cl] | 0.85 | 0.47 | 0.9 | 
10 | CCCCCCOc1cccc(N2C(N)=NC(N)=NC2(C)C)c1 [3-O(CH2)5CH3] | 1.52 | 6.4 | 7.2 | 
11 | CCCCCCCCCCCOc1cccc(N2C(N)=NC(N)=NC2(C)C)c1 [3-O(CH2)10CH3] | 1.33 | 8.8 | 11.3 | 
12 | CCCCCCCCCCCCCCOc1cccc(N2C(N)=NC(N)=NC2(C)C)c1 [3-O(CH2)13CH3] | 23.6 | 31.6 | 2.3 | 
13 | CC1(C)N=C(N)N=C(N)N1c1cccc(OCCOc2cccc(C(F)(F)F)c2)c1 [3-O(CH2)20ϕ, 3'CF3] | 1.6 |  |  | 
14 | CC1(C)N=C(N)N=C(N)N1c1ccc(C(F)(F)F)cc1 [-CF3] |  |  |  | IC50 ([3]; 100 µM NADPH, 100 µM DHF, 1 nM P. carinii DHFR, 25 C, read-out: IC5O (100 µM DHF)): 25 µM; Ki ([3]; read-out: Ki): 0.0875 µM
15 | Cc1ccc(N2C(N)=NC(N)=NC2(C)C)cc1 [-CH3] |  |  |  | IC50 [3]: 30 µM; Ki [3]: 0.105 µM
16 | CC1(C)N=C(N)N=C(N)N1c1ccc([N+](=O)[O-])cc1 [-NO2] |  |  |  | IC50 [3]: > 8330 µM; Ki [3]: > 2.9 µM
17 | COc1ccc(N2C(N)=NC(N)=NC2(C)C)cc1 [-OCH3] |  |  |  | IC50 [3]: 90 µM; Ki [3]: 0.315 µM
18 | CC1(C)N=C(N)N=C(N)N1c1ccc(O)cc1 [-OH] |  |  |  | IC50 [3]: 250 µM; Ki [3]: 0.875 µM
19 | CCOC(=O)c1cccc(N2C(N)=NC(N)=NC2(C)C)c1 [Substituent 3-CO2Et] | 166 | 114 | 1.2 | 
20 | CC(=O)c1cccc(N2C(N)=NC(N)=NC2(C)C)c1 [Substituent 3-COCH3] |  | 21 |  | 
21 | CC1(C)N=C(N)N=C(N)N1c1cccc([N+](=O)[O-])c1 [Substituent 3-NO2] | 9.5 | 2.76 | 0.7 | 
22 | CC1(C)N=C(N)N=C(N)N1c1cccc(OCc2ccccc2)c1 [Substituent 3-OCH2ϕ] | 4.6 |  |  | 
23 | CCOc1cccc(N2C(N)=NC(N)=NC2(C)C)c1 [Substituent 3-OEt] |  | 13.8 |  | 
24 | CC1(C)N=C(N)N=C(N)N1c1ccc(Cl)cc1 [Substituent 4-Cl, 4,6-diamino-1-(p-chlorophenyl)1,2-dihydro-2,2-dimethyl-s-triazine, reference compound] | 7.5 |  |  | IC50 [3]: 20 µM; Ki [3]: 0.07 µM; Ki [1]: 0.109 µM; times more tightly bound to human DHFR than to P. carinii DHFR ([2]; human DHFR versus P. carinii DHFR): ~2.5 times
